Measurements: patent US20130244255A1, “ANTIBODIES DIRECTED TO GPNMB AND USES THEREOF” (priority 2006, published 2013)
Entries after “also recorded” stand apart in the source; their conditions may differ.

What was measured:
[1] = tested on: SK-MEL-2 human melanoma xenograft; experiment: SK-MEL-2 human melanoma xenograft in athymic mice; assay type: in vivo
Method: Five- to 6-week old athymic mice (CD-1 nu/nu females), used for human tumor xenografts, were obtained from Harlan Laboratories (Indianapolis, Ind.). Animals were housed in specific pathogen-free conditions, according to the guidelines of the Association for Assessment and Accreditation of Laboratory Animal Care International (AAALAC International). Test animals were provided pelleted food and water ad libitum and kept in a room with conditioned ventilation (HVAC), temperature (22°±2° C.), relative humidity (55%±15%), and photoperiod (12 hr). All studies were carried out with approved institutional animal care and use protocols.
The tumor inhibitory activity of the CR011-MMAE immunoconjugate was measured in an anti-tumor xenograft model using athymic mice, according to published methods (see Geran et al., Cancer Chemother. Rep. 3:1-104 (1972)). […] When tumors became established (10-20 days), the animals were pair-matched into groups (n=6 mice/group), and treatment was administered by intravenous injection (tail vein).
The SK-MEL-2 human melanoma (ATCC #HTB-68) was derived from a metastatic site (skin of thigh) of a person with malignant melanoma, and the SK− MEL-5 human melanoma (ATCC #HTB-70) was derived from a metastatic site (axillary lymph node) of a person with malignant melanoma (see Fogh et al., J. Natl. Cancer Inst. 59: 221-226 (1977)). Both cell lines were obtained from the American Type Culture Collection.
The effects of treatment were monitored by repetitive tumor measurements across 2 diameters with Vernier calipers; tumor size (in mg) was calculated using a standard formula, (W^2×L)/2, assuming a specific gravity of 1.0. Tumor size and body weights were assessed twice weekly. Mice were examined daily, however, and moribund animals were humanely euthanized if clinical indications of excessive pain or distress were noted (i.e., prostration, hunched posture, paralysis/paresis, distended abdomen, ulcerations, abscesses, seizures, and/or hemorrhages) Animals with tumors exceeding 2,000 mg were removed from the study and euthanized humanely.
No apparent or statistically significant anti-tumor effects were observed. […] In preliminary studies, tumor regression was complete and was not followed by regrowth of the tumor despite lengthy observation periods (up to 200 days).

SK-Mel-2 cells = experiment: Cell cycle analysis (BrdU / propidium iodide flow cytometry); assay type: cell-based, human
Method: (§1) Briefly, cells were pulsed at the indicated times with 30 μM of bromodeoxyuridine (BrdU, Sigma) for 30 min, harvested, fixed and permeabilized in methanol. Nascent DNA synthesis was detected by anti-bromodeoxyuridine-FITC (BD Biosciences, San Jose, Calif.) staining. Total DNA content was detected using propidium iodide (PI, Sigma). For apoptosis analysis, cells were treated as above and labeled with Annexin V-FITC followed by propidium iodide exclusion using the Annexin V-FITC Apoptosis Detection kit I (BD PharMingen, San Diego, Calif.) according to the manufacturer's protocols. Flow cytometry (as described in the previous Example) was used to assay both cell cycle and apoptosis studies.
(§2) DNA synthesis and cell cycle progression were determined by flow cytometry (Table 52).

TK-10 control cells = experiment: as above; assay type: cell-based, human
Method: as §1, §2

CG56972 = molecular target: T1, CG56972 (Homo sapiens, UniProt Q14956); experiment: Flow cytometry of CR011 binding to cell surface CG56972/GPNMB (GMR)
T1 construct: endogenous in cells; host or cells: SK-MEL-2, XF-498, U-118-MG, SNB-78, SF-539, SF-268 and further human lines (ATCC / NCI)
T1 sequence (Q14956 23-572): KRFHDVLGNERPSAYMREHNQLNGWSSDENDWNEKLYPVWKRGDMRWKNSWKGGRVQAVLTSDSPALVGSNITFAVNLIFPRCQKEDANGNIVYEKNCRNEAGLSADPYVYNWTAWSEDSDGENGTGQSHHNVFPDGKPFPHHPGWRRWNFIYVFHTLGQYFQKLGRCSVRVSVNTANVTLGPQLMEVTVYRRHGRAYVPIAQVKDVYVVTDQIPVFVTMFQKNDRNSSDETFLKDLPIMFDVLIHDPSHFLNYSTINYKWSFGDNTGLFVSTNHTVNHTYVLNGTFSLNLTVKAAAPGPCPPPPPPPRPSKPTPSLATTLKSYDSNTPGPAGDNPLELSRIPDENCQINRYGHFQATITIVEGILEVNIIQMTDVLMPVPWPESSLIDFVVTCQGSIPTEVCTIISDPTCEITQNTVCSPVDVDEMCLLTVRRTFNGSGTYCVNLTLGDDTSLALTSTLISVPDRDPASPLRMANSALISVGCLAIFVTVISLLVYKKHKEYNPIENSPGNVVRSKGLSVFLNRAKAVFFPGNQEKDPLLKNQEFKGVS
Method: (§3) Quantitative analysis of GPNMB expression on the cell surface of cell lines was determined by flow cytometry. […] Cells were fixed in 1% paraformaldehyde/PBS and examined on a Becton Dickinson FACSCalibur flow cytometer. Data analysis was performed with Becton Dickinson Cell Quest software version 3.3 and the geometric mean fluorescence intensity ratio (GMR) was determined for each cell type.
as §3, with “CG56972” for “GPNMB”, “the” for “the cell”, “cytometry (FACS).” for “cytometry.”

[2] = tested on: Lymphoma or leukemia cell lines; experiment: Clonogenic assay (methylcellulose) with 1.15.1-AE, lymphoma and leukemia panel; assay type: cell-based, human
Method: Lymphoma or leukemia cell lines were mixed with methylcellulose base media (R&D Systems, USA) and in various concentrations of unconjugated and Auristatin E-conjugated 1.15.1 antibody before plating onto 6-well tissue culture plates (Becton Dickinson, Franklin Lakes, N.J., USA). […] Plates were incubated at 37° C. and examined daily. On days 14-18, colonies on the plates were counted.

## CR011-vcMMAE: CR011 conjugated to monomethyl auristatin E through a protease cleavable valine-citrulline linker; approx. 4 drugs per antibody
[1]; 1 mg/kg single bolus dose, day 58
  tumor size reached: ≥ 2,000 mg
[1]; 10 mg/kg single bolus dose
  tumor response (in words): complete regressions
[1]; CR011-vcMMAE i.v. q4d×4, P≦0.014
  earliest significant treatment effects, time after treatment commenced: 4 days
[1]; i.v., CR011-vcMMAE 20, 10, 5 or 2.5 mg/kg q4d×4, vinblastine […] q4d×4
  anti-tumor effect (in words): tumors rapidly diminished in size for the majority of the test animals
[1]; mouse, in vivo
  treatment effects on gross examination: no abnormal treatment effects
[1]; twice weekly body weight determinations
  effects of treatment on body weight or weight gain: no observable or statistically significant effects
SK-Mel-2 cells; 1000 ng/mL, 24 hrs
  decreased percentage of cells in G1 and S-phase vs untreated cells: 10%
SK-Mel-2 cells; 1000 ng/mL, 48 hr
  reduced percentage of cells in G1 and S-phase: 11%
SK-Mel-2 cells; SK-Mel-2, 24 hour, 100 ng/mL
  % G1: 56.0%
  % S-phase: 26.9%
  % Sub-G1: 0.2%
SK-Mel-2 cells; SK-Mel-2, 24 hour, 1000 ng/mL
  % G1: 43.7%
  % S-phase: 20.0%
TK-10 control cells; 1000 ng/mL
  effect on cycling of GPNMB-negative cells: did not affect the cycling
TK-10 control cells; TK-10, 24 hour, 100 ng/mL
  % G1: 51.1%
  % S-phase: 35.1%
  % Sub-G1: 0.7%
TK-10 control cells; TK-10, 24 hour, 1000 ng/mL
  % G1: 52.6%
  % S-phase: 34.2%
  % Sub-G1: 0.8%

## CR011: fully human monoclonal antibody that specifically binds to GPNMB; VH SEQ ID NO: 20, VL SEQ ID NO: 29
CG56972; SF-268, CR011 10 μg/mL
  surface staining above control mAb background: around 1.5 fold
CG56972; SF-539, CR011 10 μg/mL
  surface staining above isotype control mAb background: at least 1.5 fold
CG56972; SK-MEL-2
  cell surface staining (in words): strong cell surface staining
CG56972; SNB-78, CR011 10 μg/mL
  surface staining above isotype control mAb background: at least 1.5 fold
CG56972; U-118-MG, CR011 10 μg/mL
  surface staining above isotype control mAb background: at least 1.5 fold
CG56972; XF-498, CR011 10 μg/mL
  surface staining above isotype control mAb background: at least 1.5 fold
[1]; doses identical to that contained in the intact immunoconjugate (5 mg/kg q4d×4)
  tumor growth inhibition by components of the immunoconjugate (in words): lack of responses; also recorded: lack of tumor growth inhibition
SK-Mel-2 cells; SK-Mel-2, 24 hour, 1000 ng/mL
  % G1: 63.6%
  % G2/M: 6.4%
  % S-phase: 25.2%
  % Sub-G1: 0.5%
TK-10 control cells; TK-10, 24 hour, 1000 ng/mL
  % G1: 42.0%
  % G2/M: 6.3%
  % S-phase: 39.8%
  % Sub-G1: 0.3%
[2]
  effect on growth of all antigen positive hematopoietic cell lines (in words): no effect on growth
